Series [1] concerns blood cell populations. Briefly: Effect of oral treatment on blood cell populations, body weight and tumor weight in MX-1 bearing mice (Example 25, Table 23). To be noted: 107 mg/kg single oral bolus. The class given is in vivo, nu/nu mice. As for the experimental part: (§1) The study was terminated on Day 63.
In addition to survival and tumor regression responses, the effect of treatment on blood cell populations was assessed. The major effect of these antitumor compounds on blood cell populations was a marked reduction in the neutrophil cell number. As well, monocyte depletion correlated fairly well with neutrophil reduction for each antitumor compound. […] There was a correlation between antitumor activity and reduced neutrophil count. In general, toxicity (as determined by neutrophil depletion) and weight loss correlated with efficacy. Importantly, the toxicities observed with the very efficacious antitumor compounds were manageable and reversible; neutrophil count and body weight rebounded from their low points in just a few days. Table 23 summarizes the weight reduction, neutrophil and monocyte measurements on Day 4, with tumor weight reduction calculated at Day 18: Table 23

Series [2] deals with MX-1 Human Breast Carcinoma Xenograft. Put plainly: In vivo evaluation of oral administration of antitumor compounds against MX-1 human breast carcinoma xenograft (Example 25).
Source text: This study investigated the efficacy of various antitumor compounds when administered orally against the MX-1 human breast carcinoma xenograft.
as §1
Background: A xenograft is tissue or cells of one species grown in another, often human tumour cells in immunodeficient mice.

The test system of series [3] is SKMES Human Lung Carcinoma Xenograft. How it is done:
The antitumor compound was prepared in the following vehicle: 10% ethanol and 90% Liposyn III.
Female Nu/Nu mice (6-8 weeks of age; implanted with 1 mm^3 SKMES lung carcinoma fragments in the flank) were sorted into treatment groups of six mice each. SKMES size ranges and group mean SKMES size ranges were 126-448 mg and 238-241 mg, respectively. […] Treatments were administered as a single i.v. bolus on Day 1, and the study was terminated on Day 60.
The mean days of survival is the number of days after which a SKMES neoplasm reached a size of 2.0 g and the animal was euthanized. A complete response is obtained if the tumor is not palpable at the end of the study. A partial response is obtained if the tumor shrinks to a size smaller than its size on Day 1 of the study.

[4] abbreviates: 107 mg/kg single oral bolus, 6 mice/group, study end Day 63.
Where [5] appears, read: 15 mg/kg single i.v. bolus Day 1, 6 mice/group, study end Day 60.
[6] abbreviates: 62 mg/kg single i.v. bolus Day 1, 6 mice/group, study end Day 60.
The mark [7] stands for this setting: 108 mg/kg single i.v. bolus Day 1, 6 mice/group, study end Day 60.
[8] abbreviates: 154 mg/kg single i.v. bolus Day 1, 6 mice/group, study end Day 60.

Molecules are shown by their SMILES. Where two headings read alike, the source gives them in different places.

The values below come from EP1285918A1, “C7 Ester substituted taxanes as antitumor agents” (Florida State University Research Foundation, Inc., priority 2001, dated 2003).

As for `CCC(=O)O[C@H]1C[C@H]2OC[C@@]2(OC(C)=O)[C@H]2[C@H](OC(=O)c3ccccc3)[C@]3(O)C[C@H](OC(=O)[C@H](O)[C@H](C=C(C)C)NC(=O)OC(C)(C)C)C(C)=C([C@@H](O)C(=O)[C@]12C)C3(C)C` [Compound 1351], in series [1] (Day 4), the “Monocytes (K/µL)” value is on record as 0.088 K/µL and the “Neutrophils (K/µL)” value is 0.408 K/µL. For the same compound, in series [1] (reduction of monocytes, Day 4), the “% Reduction” value was 8.3%. The “% Reduction” value in series [1] (reduction of neutrophils, Day 4) is recorded as 55.2%. The “% Reduction” value in series [1] (reduction of tumor weight at Day 18) is 85.9%. Besides, the “Weight” value in series [1] (tumor weight at Day 18) was 122.1 mg. Further, the “Maximum Weight Loss (Day)” value in series [2] (107 mg/kg single oral bolus, 6 mice/group, on Day 5) was -9.1% (5). Also, in series [2] (setting [4]), the “Partial Response” value was 0, the “Stable Disease” value is 1 and the “Toxic Deaths” value was determined as 0. For the same compound, the “Mean Day of Survival (n)” value in series [2] (107 mg/kg single oral bolus, 6 mice/group, study end Day 63, days until tumor reached 1.5 g) is reported as 46.2 ± 5.1 (5) days. Moreover, in series [2] (MX-1, single oral bolus, doses of Table 22, Day 63), the “survival compared to vehicle control mice” value was “significant survival extensions”. For the same compound, the “Complete Response” value in series [2] (po, 107 mg/kg, 1512 h) was 0.
Regarding `CCC(=O)O[C@H]1C[C@H]2OC[C@@]2(OC(C)=O)[C@H]2[C@H](OC(=O)c3ccccc3)[C@]3(O)C[C@H](OC(=O)[C@H](O)[C@@H](NC(=O)OC(C)(C)C)c4cccs4)C(C)=C([C@@H](O)C(=O)[C@]12C)C3(C)C` [Compound 1418], the Survivors in series [3] (setting [5]) amounted to 0; in series [3] (setting [6]), 0; in series [3] (setting [7]), 3; in series [3] (setting [8]), 5. For the same compound, the “Toxic Deaths” value in series [3] (setting [5]), in series [3] (setting [6]), in series [3] (setting [7]) and in series [3] (setting [8]) was 0 throughout. Also, the “MDS (n)” value is given as 35.3 ± 3.3 (6) days in series [3] (62 mg/kg single i.v. bolus Day 1, 6 mice/group, study end Day 60, days until tumor reached 2.0 g); 21.2 ± 2.9 (6) days in series [3] (iv, 15 mg/kg); 40.6 ± 2.9 (3) days in series [3] (iv, 108 mg/kg). Besides, the MDS in series [3] (SKMES, 1418 single i.v. bolus 62 mg/kg (Group 4), 2.0 g cut-off) is recorded as 35.3 days. The “% Total Response” value stood at 0% in series [3] (iv, 15 mg/kg); 0% in series [3] (iv, 62 mg/kg); 50.0% in series [3] (iv, 108 mg/kg); 83.3% in series [3] (iv, 154 mg/kg). For the same compound, the “Complete Responses” value worked out at 0 in series [3] (iv, 15 mg/kg); 0 in series [3] (iv, 62 mg/kg); 1 in series [3] (iv, 108 mg/kg); 5 in series [3] (iv, 154 mg/kg). The “Partial Responses” value is recorded as 0 in series [3] (iv, 15 mg/kg); 0 in series [3] (iv, 62 mg/kg); 2 in series [3] (iv, 108 mg/kg); 0 in series [3] (iv, 154 mg/kg).
